Drawing on the supplement of paper PMC10307832, this text covers relative viability for one cell line.

Holding throughout (assay): relative viability (nuclei count vs DMSO), 5 days (fraction); higher = more cells survive
Compound in experiment [1]: O=C(C[C@H]1NCCC[C@@H]1O)Cn1cnc2cc(Br)c(Cl)cc2c1=O (racemic) [Halofuginone] + Cc1nc(Nc2ncc(C(=O)Nc3c(C)cccc3Cl)s2)cc(N2CCN(CCO)CC2)n1 [Dasatinib] (partner 0.075 µM)
In outline:
(§1)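 Dosing by pin tool came one day after lung cancer cell lines were seeded in 1536-well plates, using either one drug or a fixed anchor-drug dose plus five library-drug doses (not always all listed) in √10 steps. After 5 days, nuclei were counted on 4× images. Relative viability is treated-well nuclei count divided by vehicle-well nuclei count, and values are medians of duplicate plates.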

Compound in experiment [2]: O=C(C[C@H]1NCCC[C@@H]1O)Cn1cnc2cc(Br)c(Cl)cc2c1=O (racemic) [Halofuginone] + Nc1ncn([C@H]2C[C@H](O)[C@@H](CO)O2)c(=O)n1 [Decitabine] (partner 2 µM)
The method, boiled down: as §1

Compound in experiment [3]: COc1cc2c(Oc3ccc4[nH]c(C)cc4c3F)ncnc2cc1OCCCN1CCCC1 [Cediranib] + CC(=O)Nc1cccc(-n2c(=O)n(C3CC3)c(=O)c3c(Nc4ccc(I)cc4F)n(C)c(=O)c(C)c32)c1 [Trametinib] (partner 0.02 µM)
In outline: as §1

Compound in experiment [4]: COc1cc2c(Oc3ccc4[nH]c(C)cc4c3F)ncnc2cc1OCCCN1CCCC1 [Cediranib] + COc1cccc2cc(-c3nc([C@H]4CC[C@H](C(=O)O)CC4)n4ncnc(N)c34)[nH]c12 [OSI-027] (partner 0.5 µM)
The method, boiled down: as §1

UMC-11: the relative viability was found to be 0.472 in experiment [1] (first compound 0.001 µM); 0.427 in experiment [1] (first compound 0.003162 µM); 0.407 in experiment [1] (first compound 0.01 µM); 0.357 in experiment [1] (first compound 0.03162 µM); 0.293 in experiment [1] (first compound 0.1 µM); 0.646 in experiment [2] (first compound 0.001 µM). For the same cell line, the relative viability came to 0.848 in experiment [2] (first compound 0.003162 µM); 0.59 in experiment [2] (first compound 0.01 µM); 0.604 in experiment [2] (first compound 0.03162 µM); 0.426 in experiment [2] (first compound 0.1 µM); 0.684 in experiment [3] (first compound 0.04 µM); 0.234 in experiment [3] (first compound 0.1265 µM). Besides, the relative viability in experiment [3] (first compound 0.4 µM) amounted to 0.586; in experiment [3] (first compound 1.265 µM) it was 0.394; in experiment [3] (first compound 4 µM), 0.721; in experiment [4] (first compound 0.04 µM) it was 0.461; in experiment [4] (first compound 0.4 µM), 0.473; in experiment [4] (first compound 4 µM), 0.488.
